In patent US20260248922A1, “TREATMENT OF SIGNS, SYMPTOMS AND/OR COMPLICATIONS OF VIRAL, BACTERIAL, PROTOZOAL, AND/OR FUNGAL INFECTIONS BY HIGH PENETRATION PRODRUGS” (priority 2022, published 2026):
Like-named read-outs stand apart in the source and are kept apart here.

Key:
H1N1 virus [1] = assay: H1N1 virus infection mouse model (Example 68); format: in vivo, mice; settings: transdermal once a day
Protocol: A total of seventy mice (7 groups, 10/group) were used in this study. At day 0, mice were anesthetized with isoflurane and held in a dorsal recumbent position for administration of 0.1×TCID50/mouse virus (new batch) by internasal instillation, from day 2 post challenge, mice were received a single dose of different concentrations of test article or vehicle control once a day up to 15th day with dose initiation on day 2 post challenge. Group 1 served as an infected control group and was treated with vehicle (35% ethanol). 7% (pyrrolidin-2-yl)methyl 5-(2,4-difluorophenyl) salicylate hydrochloride in 35% ethanol (low dose: 25.0 mg/kg, group 2, mid dose: 49.9 mg/kg, group 3, and high dose: 99.8 mg/kg, group 4) and 7% (pyrrolidin-2-yl)methyl 5-(2,4-difluorophenyl) acetylsalicylate hydrochloride in 35% ethanol (low dose: 24.7 mg/kg, group 5, mid dose: 49.4 mg/kg, group 6, and high dose: 98.7 mg/kg, group 7) and vehicle (35% ethanol) were given by transdermal on the back of animal in an area of 2 cm×5 cm, 1.5 cm×3.5 cm, or 1 cm×2.5 cm for high, middle or low dose. Mice were observed following viral challenge for clinical signs of illness including body weights, health score, morbidity and mortality.
Lung lesions and peribronchiolitis of all deceased and surviving animals were characterized (Table 13).

H1N1 virus [2] = assay: H1N1 virus infection mouse model (Example 66); format: in vivo, mice; settings: transdermal once a day
Protocol: (§1) A total of seventy mice (7 groups, 10/group) were used in this study. At day 0, mice were anesthetized with isoflurane and held in a dorsal recumbent position for administration of 0.1×TCID50/mouse virus (new batch) by internasal instillation, from day 2 post challenge, mice were received a single dose of different concentrations of test article or vehicle control once a day up to 15th day with dose initiation on day 2 post challenge. Group 1 served as an infected control group and was treated with vehicle (35% ethanol). […] Mice were observed following viral challenge for clinical signs of illness including body weights, health score, morbidity and mortality.
Lung lesions and peribronchiolitis of all deceased and surviving animals were characterized (Table 9).

[3] = rabbit
H1N1 virus [4] = assay: H1N1 virus infection mouse model (Example 67); format: in vivo, mice; settings: transdermal once a day
Protocol: A total of seventy mice (7 groups, 10/group) were used in this study. At day 0, mice were anesthetized with isoflurane and held in a dorsal recumbent position for administration of 0.1×TCID50/mouse virus (new batch) by internasal instillation, from day 2 post challenge, mice were received a single dose of different concentrations of test article or vehicle control once a day up to 15th day with dose initiation on day 2 post challenge. Group 1 served as an infected control group and was treated with vehicle (35% ethanol). 7% of (pyrrolidin-2-yl)methyl 2-[(2,3-dimethylphenyl)amino]benzoate hydrochloride in 35% ethanol (low dose: 25.0 mg/kg, group 2, mid dose: 50.1 mg/kg, group 3, and high dose: 100.1 mg/kg, group 4) and 7% of (pyrrolidin-2-yl)methyl α-methyl-4-(2-thienylcarbonyl)benzeneacetate hydrochloride in 35% ethanol (low dose: 24.9 mg/kg, group 5, mid dose: 49.8 mg/kg, group 6, and high dose: 99.6 mg/kg, group 7) and vehicle (35% ethanol) were given by transdermal on the back of animal in an area of 2 cm×5 cm, 1.5 cm×3.5 cm, or 1 cm×2.5 cm for high, middle or low dose. Mice were observed following viral challenge for clinical signs of illness including body weights, health score, morbidity and mortality.
Lung lesions and peribronchiolitis of all deceased and surviving animals were characterized (Table 11).

LPS-induced fever = assay: Antipyretic activity, fever induced by LPS in rats; format: in vivo, Sprague Dawley rats
Protocol: The body temperature of rats was taken at 0 (2 hours after the challenge), 90 min, 180 min, and 270 min after the administration of the test compounds.

[5] = tested on: cecal slurry-induced sepsis; assay: Cecal slurry-induced sepsis mouse model (Example 75); format: in vivo, C57/BL6 mice; settings: transdermal once a day
Protocol: as §1, with “seventy C57/BL6” for “seventy”, “of 10 mg/mouse cecal slurry” for “of 0.1×TCID50/mouse virus (new batch)”, “by intraperitoneal (IP) injections,” for “by internasal instillation,”, “from hour” for “from day”, “on hour” for “on day”

paw edema = assay: Antiinflammatory activity, carrageenan paw edema in rats; format: in vivo, Wistar Rats; settings: topical, 100 mg/kg

Row | SMILES | The cumulative amount of test compounds ([3]; 1 h) [mg] | The cumulative amount of test compounds ([3]; 2 h) [mg] | The cumulative amount of test compounds ([3]; 4 h) [mg] | The cumulative amount of test compounds ([3]; 8 h) [mg] | further results
1 | Cl.O=C(OCC1CCCN1)c1cc(-c2ccc(F)cc2F)ccc1O (centres unmarked) [Example 27, (pyrrolidin-2-yl)methyl 5-(2,4-difluorophenyl) salicylate hydrochloride] |  |  |  |  | survival (H1N1 virus [1]; group 2, low dose 25.0 mg/kg): 30%; survival (H1N1 virus [1]; group 3, mid dose 49.9 mg/kg): 50%; survival (H1N1 virus [1]; group 4, high dose 99.8 mg/kg): 60%
2 | CC(=O)O.CCN(CC)CCOC(=O)CC1=C(C)/C(=C/c2ccc([S+](C)[O-])cc2)c2ccc(F)cc21 (centres unmarked) [Example 8] |  |  |  |  | survival (H1N1 virus [2]; group 5, low dose 25.5 mg/kg): 60%; survival (H1N1 virus [2]; group 6, mid dose 50.9 mg/kg): 70%; survival (H1N1 virus [2]; group 7, high dose 101.9 mg/kg): 50%
3 | O=C(O)Cc1ccccc1Nc1c(Cl)cccc1Cl [Parent drug-8] | 0.000 | 0.001 | 0.002 | 0.003 | 
4 | CC(C(=O)OCC1CCCN1)c1ccc(C(=O)c2cccs2)cc1.Cl (stereo not drawn) [Example 33, (pyrrolidin-2-yl)methyl α-methyl-4-(2-thienylcarbonyl)benzeneacetate hydrochloride] |  |  |  |  | survival (H1N1 virus [4]; group 5, low dose 24.9 mg/kg): 60%; survival (H1N1 virus [4]; group 6, mid dose 49.8 mg/kg): 50%; survival (H1N1 virus [4]; group 7, high dose 99.6 mg/kg): 40%
5 | CN(C)C(=O)CCS[C@H](SCCC(=O)O)c1cccc(/C=C/c2ccc3ccc(Cl)cc3n2)c1 [Parent drug-4] | 0.001 | 0.001 | 0.001 | 0.002 | 
6 | CC(C(=O)OCC1CCCN1)c1ccc(-c2ccccc2)c(F)c1.Cl (centres unmarked) [Example 15, (pyrrolidin-2-yl)methyl 2-(2-fluorobiphenyl-4-yl) propanoate hydrochloride] |  |  |  |  | body temperature (Mean) (LPS-induced fever; T = 0 min (2 hours after LPS challenge), transdermal, 20 mg/kg): 38.30; body temperature (Mean) (LPS-induced fever; T = 90 min, transdermal, 20 mg/kg): 37.37; body temperature (Mean) (LPS-induced fever; T = 180 min, transdermal, 20 mg/kg): 36.78; body temperature (Mean) (LPS-induced fever; T = 270 min, transdermal, 20 mg/kg): 36.65; survival (H1N1 virus [2]; group 2, low dose 25.0 mg/kg): 40%; survival (H1N1 virus [2]; group 3, mid dose 50.0 mg/kg): 50%; survival (H1N1 virus [2]; group 4, high dose 100.0 mg/kg): 60%
7 | O=C(O)C(c1ccc(OCc2ccc3ccccc3n2)cc1)C1CCCC1 (centres unmarked) [Parent drug-5] | 0.001 | 0.001 | 0.001 | 0.002 | 
8 | Cc1cccc(Nc2ccccc2C(=O)OCC2CCCN2)c1C.Cl (centres unmarked) [Example 17, (pyrrolidin-2-yl)methyl 2-[(2,3-dimethylphenyl)amino]benzoate hydrochloride] |  |  |  |  | survival (H1N1 virus [4]; group 2, low dose 25.0 mg/kg): 30%; survival (H1N1 virus [4]; group 3, mid dose 50.1 mg/kg): 50%; survival (H1N1 virus [4]; group 4, high dose 100.1 mg/kg): 50%
9 | CC(=O)Oc1ccc(-c2ccc(F)cc2F)cc1C(=O)OCC1CCCN1.Cl (centres unmarked) [Example 28, (pyrrolidin-2-yl)methyl 5-(2,4-difluorophenyl) acetylsalicylate hydrochloride] |  |  |  |  | survival (H1N1 virus [1]; group 5, low dose 24.7 mg/kg): 40%; survival (H1N1 virus [1]; group 6, mid dose 49.4 mg/kg): 60%; survival (H1N1 virus [1]; group 7, high dose 98.7 mg/kg): 70%
10 | Cl.O=C(OCC1CCCN1)C(c1ccc(OCc2ccc3ccccc3n2)cc1)C1CCCC1 (centres unmarked) [Example 6, (pyrrolidin-2-yl)methyl 2-cyclopentyl-2-[4-(quinolin-2-ylmethoxy)phenyl]acetate hydrochloride] | 0.52 | 1.03 | 2.10 | 4.19 | 
11 | CC(C)c1ccc2c(c1)c(SC(C)(C)C)c(CC(C)(C)C(=O)O)n2Cc1ccc(Cl)cc1 [Parent drug-2] | 0.001 | 0.001 | 0.001 | 0.003 | 
12 | CC(C(=O)OCC1CCCN1)c1cccc(Oc2ccccc2)c1.Cl (centres unmarked) [Example 30, (pyrrolidin-2-yl)methyl 2-(3-phenoxyphenyl) propionate hydrochloride] |  |  |  |  | survival ([5]; group 2, low dose 25.1 mg/kg): 10%; survival ([5]; group 3, mid dose 50.2 mg/kg): 30%; survival ([5]; group 4, high dose 100.3 mg/kg): 40%
13 | CCCc1c(OCCCS(=O)(=O)c2ccc(C(=O)CCC(=O)O)cc2)ccc(C(C)=O)c1O [Parent drug-1] | 0.000 | 0.001 | 0.001 | 0.002 | 
14 | CN(C)C(=O)CCSC(SCCC(=O)OCC1CCCN1)c1cccc(/C=C/c2ccc3ccc(Cl)cc3n2)c1.Cl (centres unmarked) [Example 7, (pyrrolidin-2-yl)methyl 3-[[3-[(E)-2-(7-chloroquinolin-2-yl)ethenyl]phenyl]-[3-(dimethylamino)-3-oxopropyl]sulfanylmethyl]sulfanylpropanoate hydrochloride] | 0.46 | 1.01 | 2.09 | 4.29 | 
15 | CCN(CC)CCOC(=O)CC1(CS[C@H](CCc2ccccc2C(C)(C)O)c2cccc(C=Cc3ccc4ccc(Cl)cc4n3)c2)CC1.Cl [Example 3] | 0.36 | 0.78 | 1.77 | 3.87 | 
16 | CC(c1cc2ccccc2s1)N(O)C(N)=O (centres unmarked) [Parent drug-6] | 0.001 | 0.001 | 0.001 | 0.003 | 
17 | CCCc1c(OCCCS(=O)(=O)c2ccc(C(=O)CCC(=O)OCC3CCCN3)cc2)ccc(C(C)=O)c1O.Cl (centres unmarked) [Example 19] | 0.50 | 1.02 | 2.18 | 4.48 | 
18 | CC(C)Cc1ccc(C(C)C(=O)O)cc1 (centres unmarked) [Ibuprofen, reference compound] |  |  |  |  | body temperature (Mean) (LPS-induced fever; T = 0 min (2 hours after LPS challenge), group C, topical, 100 mg/kg, 7% in 70% ethanol): 38.18; body temperature (Mean) (LPS-induced fever; T = 90 min, group B, oral, 100 mg/kg): 38.01; body temperature (Mean) (LPS-induced fever; T = 90 min, group C, topical, 100 mg/kg, 7% in 70% ethanol): 38.26; body temperature (Mean) (LPS-induced fever; T = 180 min, group B, oral, 100 mg/kg): 37.34; body temperature (Mean) (LPS-induced fever; T = 180 min, group C, topical, 100 mg/kg, 7% in 70% ethanol): 38.27; body temperature (Mean) (LPS-induced fever; T = 270 min, group B, oral, 100 mg/kg): 37.02; body temperature (Mean) (LPS-induced fever; T = 270 min, group C, topical, 100 mg/kg, 7% in 70% ethanol): 37.98; antipyretic activity (in words) (LPS-induced fever; topical, 100 mg/kg): did not show any antipyretic activity; anti-inflammatory activity (in words) (paw edema): did not show any anti-inflammatory activity
